Data set [1] can be described thus: physchem.
Description: The aqueous phase is decanted and then analysed by gas chromatography in order to determine the binder content in g/L, corresponding to its solubility.
The aqueous phase is decanted and then analysed by gas chromatography to determine the concentration of organic binder.
A short description of data set [2]: Granule dissolution test in acetone. Type of data set: physicochemical. The settings on record: 13 g AZDN in 100 ml acetone, room temperature, 100 rpm, visual. On the procedure: A granule dissolution test is carried out at room temperature. A glass Erlenmeyer flask fitted with a magnetic stirring bar is placed on a magnetic stirrer. With the stirring stopped, 13 g of AZDN are introduced into the Erlenmeyer flask. 100 ml of acetone are then introduced quickly and stirring is started (100 rpm). The time taken until, visually, undissolved AZDN crystals are no longer seen is recorded.
Commercial recrystallized AZDN (130-257-438 microns/dv 10-50-90), AZDN granules prepared and dried as obtained above, and the dry powdered AZDN used in Example 1 are compared.

Data set [3] is described as follows: Measurement of the solubility of AZDN in the organic binder. The following applies: 20 °C, organic solvent or mixture, thermodynamic from solid.
Protocol: (§1) The bottle is shaken for a period of between 1 h and 10 h, for example 6 h. After decantation, said binder is analysed to determine its content of compound of formula (I): this content corresponds to the solubility of the azo compound in the organic binder in g/L. The analysis is carried out by gas chromatography.
(§2) The bottle is shaken for approximately 6 h. After decantation, the organic binder is analysed to determine its AZDN concentration. The analysis is carried out by gas chromatography with an injector temperature set at 220° C. (under these conditions, AZDN is essentially transformed into tetramethylsuccinonitrile in the injector).
A short description of data set [4]: physchem. The following applies: 20 °C, organic solvent or mixture, thermodynamic from solid.
Protocol: as §1, §2
Setting [5] is: water, 20 °C, thermodynamic from solid.
The mark [6] stands for this setting: 20 °C, water, thermodynamic from solid.

≈ marks a conversion by molar mass, not a printed value. A value given as a limit tells only on which side of the number the result lay.

One may read the solubility as how much of the substance goes into solution per volume. Consider `CCCCCC(C)=O` [Methyl pentyl ketone], for which the solubility at 1 h in the data set “physchem [1]” (setting [5]) is 5 mg/mL (≈ 43.8 mM).

In “physchem [1]” (setting [5]), `CC(=O)OCC(C)C` [Isobutyl acetate] returned a solubility at 1 h of 7 mg/mL.

In data set [2], `CC(C)(C#N)N=NC(C)(C)C#N` [Recrystallized AZDN, 2,2′-azobis(isobutyronitrile), reference compound] yielded a Dissolution time of 35 s.

With `CC(C)(C#N)N=NC(C)(C)C#N` [Dry AZDN powder, 2,2′-azobis(isobutyronitrile)], the Dissolution time in data set [2] was found to be 15 s.

For `COC1CCCC1` [Methoxycyclopentane], the solubility at 1 h in “physchem [1]” (setting [5]) was 12.5 mg/mL (≈ 125 mM).

Take `CCCCOC(C)=O` [n-Butyl acetate]: the solubility at 1 h in “physchem [1]” (setting [6]) was 7 mg/mL.

In “physchem [1]” (setting [5]), `CC(=O)CC(C)C` [Methyl isobutyl ketone] registered a solubility at 1 h of 20 mg/mL (≈ 200 mM).

As to `Cc1cccc(C)c1` [meta-Xylene], the solubility at 1 h in the data set “physchem [1]” (setting [6]) was below 0.5 mg/mL.

In the case of `CC(C)(C#N)N=NC(C)(C)C#N` [AZDN, 2,2′-azobis(isobutyronitrile)], the solubility at 6 h in data set [3] (isobutyl acetate) is 59 mg/mL (≈ 359 mM); in data set [3] (meta-xylene), 25 mg/mL (≈ 152 mM); in data set [3] (methoxycyclopentane (CPME)) it was 30.5 mg/mL (≈ 186 mM); in data set [3] (methyl isobutyl ketone) it was 75.5 mg/mL (≈ 460 mM); in data set [3] (methyl pentyl ketone) it was 45 mg/mL (≈ 274 mM); in data set [3] (toluene) it was 60 mg/mL (≈ 365 mM). Also, the solubility at 6 h in “physchem [4]” (diethyl carbonate) stood at 85 mg/mL (≈ 518 mM); in “physchem [4]” (n-butyl acetate), 59 mg/mL (≈ 359 mM).

Values taken from patent publication US20260103581A1, “PROCESS FOR GRANULATING AZO COMPOUNDS AND GRANULES OBTAINED” (ARKEMA FRANCE, priority 2022, published 2026).
